Assay [1] has as its system MCF-7 cells. As to the kind of experiment: Intracellular ROS generation (DCFH-DA). In kind it is cell-based, human. An excerpt:
This can result from the increased metabolic demands of rapidly dividing cancer cells and mitochondrial dysfunction. Elevated ROS levels can also damage DNA, contributing to genomic instability and the development of genetic mutations that drive cancer progression. Chemotherapy drugs, for example, can generate ROS as a byproduct of their mechanism of action, causing increase DNA damage and cell death in cancer cells. As a result, we investigated whether the compound 2g could cause ROS production within cancer cells.
The generation of reactive oxygen species in MCF-7 cells was investigated using the 2-7-dichlorodihydroflourescein diacetate (DCFH-DA) assay. The non-fluorescent DCFH-DA enters the cells, where cellular esterase cleaves off the acetyl groups to produce DCFH. ROS transform the molecule from DCFH to DCF, which produces green light. […] Following incubation, old medium was removed, and cells were treated with 10 μM DCFH-DA (S0033-Beyotime) in accordance with the recommended technique for 10 min at 37 °C in complete darkness. The intensity of fluorescence was then measured with a Laser Scanning Confocal Microscope (LSCM) DMI8 (Leica Microsystems, Germany) at 63× magnification at 485 nm and 535 nm for excitation and emission wavelengths. […] In the meantime, the increase in fluorescence intensity was determined in comparison to the control. Image J was used to calculate the relative fluorescence intensity (%). One-way ANOVA was used to determine significance, and the graph was created in GraphPad Prism™ version 8.0.1.

The subject of assay [2] is MCF-7 cells. As to the kind of experiment: Cell cycle analysis (PI, flow cytometry). It counts as cell-based, human. To be noted: MCF-7, 48 hours, at IC50 concentration. The procedure: In addition to the apoptosis assay, the cell cycle progression of MCF-7 cells was also investigated using the compound 2g. The cell population at different cell cycle phases was assessed using flow cytometry. […] These findings highlight that the lead compound 2g specifically impacts cell cycle regulation in the early phase compared to control and standard compound-treated cells (Fig. 6).
Flow cytometry was used to study the cell cycle of compound 2g and BG-45 using the BDAria™ III, a BD biosciences equipment, and the data was processed using Flow Jo software. For this objective, 5.0 × 10^4 MCF-7 cells were seeded onto 12 well plates and incubated overnight. The media was aspirated the other day, and the treatment was continued for another 48 hours after adding the required concentrations of compound 2g and BG-45 to the aspirated media. Following the treatment, the sample wells were rinsed with ice-cold PBS, trypsinized, and collected as a cell pellet. After two ice-cold PBS washes, the pellet was fixed with a dropwise addition of 70% ice-cold ethanol, which was then gently vortexed to create a single-cell suspension. Overnight, the fixed cells were stored at −20 °C. The samples were then centrifuged, and the resulting cell pellet was resuspended in 500 μL of the staining solution made from 20% w/v RNase, 2% w/v PI, and roughly 0.1% v/v Triton X 100 solution in PBS. The dissolved samples were examined using flow cytometry in the BDAria™ III, BD Biosciences, after being incubated for 30 min at room temperature in the dark.

Another assay has as its system 4T1. As to the kind of experiment: MTT anti-proliferative assay on 4T1. In kind it is cell-based, mouse. The procedure: (§1) All synthesized molecules were tested for their anticancer activity using the MTT assay protocol against the murine mammary carcinoma cell line (4T1), the human breast cancer (MCF-7), and the prostatic small cell carcinoma (PC-3). These compounds were then assessed for their IC50 determination at various concentrations. According to this finding, all synthesized compounds have the ability to inhibit the proliferation of a variety of cancer cell lines. […] It is more biased for MCF-7 cells over other cancer cells tested. Further, we contemplated conducting additional research to assess their anti-cancer effectiveness and mechanism (Fig. 3).
(§2) The mouse triple-negative breast cancer cell line (4T1), a human luminal A breast cancer cell line (MCF-7), a human prostate cancer cell line (PC-3), and a normal human embryonic kidney cell line (HEK-293) were procured from the National Center for Cell Science (NCCS, Pune, India). Dulbecco's Modified Eagle Medium (DMEM) (Himedia Laboratories Pvt Ltd, Mumbai, India) was used to cultivate MCF-7, 4T1, PC-3, and HEK-293 cells. All the mentioned cell lines were cultured in Dulbecco's Modified Eagle Medium (DMEM) supplemented with 10% heat-inactivated fetal bovine serum (Himedia Laboratories Pvt Ltd, Mumbai, India) and 1% antibiotic (Pen strep: A001), Himedia Laboratories Pvt Ltd, Mumbai, India. Cells were grown in a humidified environment with 5% CO2 at 37 °C. The experiment was performed using the yellow dye MTT [3-(4,5-dimethylthiazol-2-yl)-2, 5-diphenyltetrazolium bromide].
(§3) The MTT assay protocol was used to determine the IC50 values of the final compounds against different types of cancer cell lines and their selectivity over normal human cell lines. Dilutions of various concentrations were made from the compounds' DMSO stock solutions in the appropriate media. With a control solution of less than 1% DMSO in the appropriate media, dilutions from 200 μM to 0.781 μM concentrations were prepared using the serial dilution method. Cells were subcultured in their respective complete media according to the ATCC protocol before being seeded on a sterile 96-well plate with around 100 μL per well and a cell density of about 1 × 10^4 cells per well and incubated overnight. The medium was aspirated the following day, and adherent cells were treated with the respective concentrations 200 μM to 0.781 μM. The cells were then cultured for 48 hours in presence of compounds in the growth medium. The medium was aspirated post-treatment, and 100 μL of a 5 mg mL^−1 MTT solution in phenol red-free media was added. This mixture was then incubated for around 3 hours to check for the production of formazan crystals. The MTT solution was withdrawn, and 150 μL of DMSO was added to the wells to dissolve the generated crystals. The absorbance was measured at 570 nm and 650 nm. The percent cell viability was calculated for the IC50 values using GraphPad Prism™ version 8.0.1, and the results were shown as a dose–response curve.

The next assay concerns PC-3. As to the kind of experiment: MTT anti-proliferative assay on PC-3. In kind it is cell-based, human. The procedure:
as §1, §2, §3

The subject of a further assay is HEK-293. As to the kind of experiment: MTT cytotoxicity on normal HEK-293 cells. It counts as cell-based. To be noted: Homo sapiens, HEK293, normal cell line, 48 hours treatment, mean ± SD (n = 2).
From the text: We also investigated their in vitro cytotoxicity against a normal human embryonic kidney (HEK-293) cell line to determine their IC50.
as §2, §3

`COc1ccc(-c2noc(-c3cccs3)c2C(F)(F)F)cc1OC` [Compound 2g, 3-(3,4-dimethoxyphenyl)-5-(thiophen-2-yl)-4-(trifluoromethyl)isoxazole]: the “Fluorescence intensity (DCFH-DA, ImageJ)” value in the assay with MCF-7 cells [1] (MCF-7, 48 h, IC50 dose) was 31.63. Moreover, in the assay on MCF-7 cells [1] (MCF-7, IC50 dose), the “relative fluorescence intensity compared to the control” value is given as “considerable increase”. The “cell population in G0/G1 phase” value with MCF-7 cells [2] is on record as 68.6%. For the same compound, in the assay with MCF-7 cells [2], the “cell population in G2/M phase” value came to 31.5%. Further, the “cell population in S phase” value with MCF-7 cells [2] worked out at 1.11%. The concentration for half-maximal inhibition (IC50) in the assay with 4T1 (Mus musculus, 4T1, MTT, 48 hours treatment, mean ± SD (n = 2)) was 8.75 ± 0.09 µM; with PC-3 (Homo sapiens, PC-3, MTT, 48 hours treatment, mean ± SD (n = 2)) it was 7.16 ± 0.18 µM; in the assay on HEK-293, 81.2 ± 0.17 µM. Moreover, the “selectivity for other cancer cell lines over HEK-293” value in the assay on 4T1 (first value, fits 4T1 by ratio of Table 1 IC50) is recorded as 9.2 fold; in the assay with PC-3 (second value, fits PC-3 by ratio of Table 1 IC50), 11.3 fold.

The record behind these values is PMC11167338, “Exploring the impact of trifluoromethyl (–CF3) functional group on the anti-cancer activity of isoxazole-based molecules: design, synthesis, biological evaluation and molecular docking analysis” (RSC Advances, 2024).
